Assay results taken from patent publication US20220340899A1, “STEREOSELECTIVE PH RESPONSIVE PEPTIDE DENDRIMERS FOR NUCLEIC ACID TRANSFECTION” (UNIVERSITÄT BERN, priority 2019, published 2022).
Values belong to the substance of their own block, whether it stands above or below them.

Key:
[1] = system: siRNA; assay: Free siRNA assay by Quant-iT microRNA; assay type: binding
Description: Free siRNA assay by Quant-iT™ microRNA: The complexes were formed in OptiMEM by mixing siRNA (10 μmol, 0.2 μL from a 50 μM Milli-Q water solution in 6.25 μL OptiMEM pH 5 or pH 7.4) with peptide dendrimers (N/P ratio of 1-10, 42-420 μmol, 0.15-1.5 μL from a 1 mg/mL Milli-Q water solution in 6.25 μL OptiMEM pH 5 or pH 7.4) or L2000 (w/w ratio of 0.2:1-8:1, 0.0266-1.064 μL from the 1 mg/mL commercial solution in 6.25 μL OptiMEM pH 7.4) for 30 min at room temperature (12.5 μL, concentration of 800 nM siRNA and 1.68-16.8 μM i.e. 12-120 μg/mL peptide dendrimers or 0.133-5.32 μg/mL L2000). Then, the Quant-iT™ microRNA Assay Kit (Thermo Fisher Scientific, Reinach, CH) was used following the manufacturer's protocol. Briefly, 1 μl of reagent was diluted in 200 μl of buffer (pH 5 by acidification by 10 mM acetate buffer or standard pH 7.4) and 195 μL added to the well of a TPP 96-well plate. Then, 5 μl of the complexes were added to the wells (200 μL, final concentration of 20 nM siRNA and 42-420 nM i.e. 0.3-3 μg/mL peptide dendrimers or 0.0532-2.128 μg/mL L2000) and fluorescence measured at λex=500 nm and λem=525 nm after 10 min on a Tecan Infinite M1000 Pro plate reader. The Quant-iT™ microRNA signal from the complexes were normalized against a «siRNA only» control to yield the percentage of the signal detected.

[2] = system: HT-1080, PC-3, MCF-7, SH-SY5Y and Caco-2 cell lines; assay: siRNA transfection, GAPDH knock-down in five additional cell lines; assay type: cell-based; conditions: including SH-SY5Y and Caco-2
Description: siRNA Transfection and Protein Quantitation: HeLa, CHO, PC3, SH-SY5Y, Caco-2 and MCF-7 cells were seeded in TPP 96-well plates (Faust Laborbedarf AG, Schaffhausen) at 5×10^3 cells per well the day before transfection. The 96-well plates were coated with poly-L-Lysine (Sigma aldrich, Buchs, CH) for 1 h and dried under a flow of air in the fumehood at RT before plating HEK-293 and HT-1080 at 5×10^3 cells per well the day before transfection. Cells were always used in their exponential phase for transfection and with a number of passages between 3 to 20. The siRNA transfection complexes were formed in OptiMEM by mixing siRNA (1-20 μmol, 0.02-0.4 μL from a 50 μM Milli-Q water solution in 6.25 μL OptiMEM) with peptide dendrimers (N/P ratio of 1-100, 21-420 μmol, 0.1-3.5 μl from a 1 mg/mL Milli-Q water solution in 6.25 μL OptiMEM) or L2000 (w/w ratio of 0.5:1-2:1, 0.0665-0.266 μg, 0.0665-0.266 μL from the 1 mg/mL commercial solution in 6.25 μL OptiMEM) at room temperature for 30 minutes (12.5 μL, concentration of 80-1600 nM siRNA and 1.68-33.6 μM i.e. 12-240 μg/mL peptide dendrimers or 5.32-21.28 μg/mL L2000). […] Briefly, medium was removed, cells were lysed with 200 μL cold lysis buffer, 2-10 μL of lysis buffer from each well was taken to a new 96 well plate containing 90 μL Master Mix and fluorescence measured at λex=560 nm and λem=590 nm on a Tecan Infinite M1000 Pro plate reader.

[3] = system: cells; assay: Cell viability by AlamarBlue assay after transfection; assay type: cell-based; conditions: in transfection experiments
Description: Cell Viability by AlamarBlue® Assay: Cells were transfected in TPP 96-well plates as previously described. Following transfections, the medium was removed and replaced with 10% AlamarBlue® (Thermo Fisher Scientific, Reinach, CH) in DMEM supplemented with 10% FCS. Cells were incubated for 4-24 h at 37° C. in a humidified atmosphere in 5% carbon dioxide. Then, plates were measured on a Tecan Infinite M1000 Pro plate reader at λex=560 nm and λem=590 nm and value normalized to the one of untreated cells.

siRNA binding (in words) [1]: weakly bound siRNA
Substance: (KL)8(KKL)4(KKL)2KLLLL [MH46]

Substance: (RL)8(KRL)4(KLL)2KLLLL [MH44]
unbound siRNA [1]: 1.6±0.3%

Substance: (kl)8(kkl)4(kll)2kk(C16)k(C16) [DMH13]
GADPH knock-down in five additional cell lines [2]: effectively transfected all five cell lines
cell toxicity / cell viability [3]: without significant toxicity to cells

Substance: (kl)8(kkl)4(kll)2kllll [DMH18]
GADPH knock-down in five additional cell lines [2]: effectively transfected all five cell lines
cell toxicity / cell viability [3]: without significant toxicity to cells
